{"source": "patent US6177253A", "about": "“Screening methods for the identification of anti-HIV compounds employing a cyclosporine-specific monoclonal antibody that cross-reacts with HIV-1 p24” (priority 1998, dated 2001)", "type_in_all_cases": "binding, BALB/c mice", "key": {"C4 2.2": {"tested_on": "C4 2.2", "test": "ELISA inhibition by singly modified Cs-derivatives, McAb C4 2.2", "conditions": "group V; McAb binds selectively to Thr^2 -Cs-BSA coating", "description": "(§1) A second ELISA Procedure used conjugates of D-Lys^8 -Cs-BSA and Thr^2 -Cs-BSA for coating (Queeniaux et al., 1987b). An indirect detection system consisting of rabbit anti-mouse Ig followed by alkaline phosphates-conjugated goat anti-rabbit IgG was performed as previously described (Queenlaux et al., 1987b).\n(§2) The binding of the 22 McAbs to these two Cs-BSA conjugates was also found to correlate well with their fine specificity patterns, as characterized with a set of 28-36 Cs derivatives. Typical ELISA curves showing McAb binding either to D-Lys^8 -Cs-BSA (panel A) or to Thr^2 -Ca-BSA (panel B) and inhibited by Cs or Cs derivatives are shown in FIGS. 8A-8B, D-Lys^8 -Cs-BSA was subsequently used for coating in the inhibition experiments, except for those McAbs binding selectively to Thr^2 -Cs-BSA (see Table 4 and FIGS. 7A-7C). An example of the binding of 26 Cs derivatives by McAbs belonging to each of the five specificity groups mentioned above is reported in Table 5. The results are expressed as the difference of IC50 (in log10) between the Cs derivatives and Cs. All Cs-derivatives used in this study were selected for having a conserved peptide ring conformation compared with CsA (as determined in NMR or X-ray diffraction)."}, "B11 1.4": {"tested_on": "B11 1.4", "test": "ELISA inhibition by singly modified Cs-derivatives, McAb B11 1.4", "conditions": "group IV; D-Lys^8 -Cs-BSA coating", "description": "as §1, §2"}, "G7 1.1": {"tested_on": "G7 1.1", "test": "ELISA inhibition by singly modified Cs-derivatives, McAb G7 1.1", "conditions": "group I; McAb binds selectively to Thr^2 -Cs-BSA coating", "description": "as §1, §2"}, "H4 1.3": {"tested_on": "H4 1.3", "test": "ELISA inhibition by singly modified Cs-derivatives, McAb H4 1.3", "conditions": "group II; D-Lys^8 -Cs-BSA coating", "description": "as §1, §2"}, "H6 1.5": {"tested_on": "H6 1.5", "test": "ELISA inhibition by singly modified Cs-derivatives, McAb H6 1.5", "conditions": "group III; D-Lys^8 -Cs-BSA coating", "description": "as §1, §2"}}}
{"smiles": "C/C=C/C[C@@H](C)[C@@H](O)[C@H]1C(=O)N[C@@H](CO)C(=O)N(C)CC(=O)N(C)[C@@H](CC(C)C)C(=O)N[C@@H](C(C)C)C(=O)N(C)[C@@H](CC(C)C)C(=O)N[C@@H](C)C(=O)N[C@H](C)C(=O)N(C)[C@@H](CC(C)C)C(=O)N(C)[C@@H](CC(C)C)C(=O)N(C)[C@@H](C(C)C)C(=O)N1C", "note": "[Abu^2 Ser]", "values": [{"measurement": "log10 difference in the concentrations of Cs-derivatives and unmodified Cs required to achieve 50% inhibition in ELISA, McAb C4 2.2", "setting": "C4 2.2", "value": 0.2, "unit": "log10"}, {"measurement": "log10 difference in the concentrations of Cs-derivatives and unmodified Cs required to achieve 50% inhibition in ELISA, McAb B11 1.4", "setting": "B11 1.4", "value": 0.0, "unit": "log10"}, {"measurement": "log10 difference in the concentrations of Cs-derivatives and unmodified Cs required to achieve 50% inhibition in ELISA, McAb G7 1.1", "setting": "G7 1.1", "value": "< 0.0", "unit": "log10"}, {"measurement": "log10 difference in the concentrations of Cs-derivatives and unmodified Cs required to achieve 50% inhibition in ELISA, McAb H4 1.3", "setting": "H4 1.3", "value": 0.9, "unit": "log10"}, {"measurement": "log10 difference in the concentrations of Cs-derivatives and unmodified Cs required to achieve 50% inhibition in ELISA, McAb H6 1.5", "setting": "H6 1.5", "value": 0.6, "unit": "log10"}]}
{"smiles": "C/C=C/C[C@@H](C)[C@@H](O)[C@H]1C(=O)N[C@@H](CC)C(=O)N(C)CC(=O)N(C)[C@@H](CC(C)C)C(=O)N[C@@H](C(C)C)C(=O)N(C)[C@@H](CC(C)C)C(=O)N[C@@H](C)C(=O)N[C@H](C)C(=O)N(C)[C@@H](Cc2ccccc2)C(=O)N(C)[C@@H](CC(C)C)C(=O)N(C)[C@@H](C(C)C)C(=O)N1C", "note": "[MeLeu^9 MePhe]", "values": [{"measurement": "log10 difference in the concentrations of Cs-derivatives and unmodified Cs required to achieve 50% inhibition in ELISA, McAb C4 2.2", "setting": "C4 2.2", "value": 1.8, "unit": "log10"}, {"measurement": "log10 difference in the concentrations of Cs-derivatives and unmodified Cs required to achieve 50% inhibition in ELISA, McAb B11 1.4", "setting": "B11 1.4", "value": 1.2, "unit": "log10"}, {"measurement": "log10 difference in the concentrations of Cs-derivatives and unmodified Cs required to achieve 50% inhibition in ELISA, McAb G7 1.1", "setting": "G7 1.1", "value": 0.3, "unit": "log10"}, {"measurement": "log10 difference in the concentrations of Cs-derivatives and unmodified Cs required to achieve 50% inhibition in ELISA, McAb H4 1.3", "setting": "H4 1.3", "value": 0.0, "unit": "log10"}, {"measurement": "log10 difference in the concentrations of Cs-derivatives and unmodified Cs required to achieve 50% inhibition in ELISA, McAb H6 1.5", "setting": "H6 1.5", "value": 0.1, "unit": "log10"}]}
{"smiles": "C/C=C/C[C@@H](C)[C@@H](O)[C@H]1C(=O)N[C@@H](CC)C(=O)N(C)[C@H](C)C(=O)N(C)[C@@H](CC(C)C)C(=O)N[C@@H](C(C)C)C(=O)N(C)[C@@H](CC(C)C)C(=O)N[C@@H](C)C(=O)N[C@H](C)C(=O)N(C)[C@@H](CC(C)C)C(=O)N(C)[C@@H](CC(C)C)C(=O)N(C)[C@@H](C(C)C)C(=O)N1C", "note": "[Sar^3 D-MeAla]", "values": [{"measurement": "log10 difference in the concentrations of Cs-derivatives and unmodified Cs required to achieve 50% inhibition in ELISA, McAb C4 2.2", "setting": "C4 2.2", "value": 1.2, "unit": "log10"}, {"measurement": "log10 difference in the concentrations of Cs-derivatives and unmodified Cs required to achieve 50% inhibition in ELISA, McAb B11 1.4", "setting": "B11 1.4", "value": "< 0.0", "unit": "log10"}, {"measurement": "log10 difference in the concentrations of Cs-derivatives and unmodified Cs required to achieve 50% inhibition in ELISA, McAb G7 1.1", "setting": "G7 1.1", "value": 1.2, "unit": "log10"}, {"measurement": "log10 difference in the concentrations of Cs-derivatives and unmodified Cs required to achieve 50% inhibition in ELISA, McAb H4 1.3", "setting": "H4 1.3", "value": 1.3, "unit": "log10"}, {"measurement": "log10 difference in the concentrations of Cs-derivatives and unmodified Cs required to achieve 50% inhibition in ELISA, McAb H6 1.5", "setting": "H6 1.5", "value": 1.4, "unit": "log10"}]}
{"smiles": "C/C=C/C[C@@H](C)[C@@H](O)[C@H]1C(=O)N[C@@H](CC)C(=O)N(C)CC(=O)N(C)[C@@H](CC(C)C)C(=O)N[C@@H](C(C)C)C(=O)N(C)[C@@H](C)C(=O)N[C@@H](C)C(=O)N[C@H](C)C(=O)N(C)[C@@H](CC(C)C)C(=O)N(C)[C@@H](CC(C)C)C(=O)N(C)[C@@H](C(C)C)C(=O)N1C", "note": "[MeLeu^6 McAla]", "values": [{"measurement": "log10 difference in the concentrations of Cs-derivatives and unmodified Cs required to achieve 50% inhibition in ELISA, McAb C4 2.2", "setting": "C4 2.2", "value": 1.2, "unit": "log10"}, {"measurement": "log10 difference in the concentrations of Cs-derivatives and unmodified Cs required to achieve 50% inhibition in ELISA, McAb B11 1.4", "setting": "B11 1.4", "value": 0.0, "unit": "log10"}, {"measurement": "log10 difference in the concentrations of Cs-derivatives and unmodified Cs required to achieve 50% inhibition in ELISA, McAb G7 1.1", "setting": "G7 1.1", "value": 0.7, "unit": "log10"}, {"measurement": "log10 difference in the concentrations of Cs-derivatives and unmodified Cs required to achieve 50% inhibition in ELISA, McAb H4 1.3", "setting": "H4 1.3", "value": 0.9, "unit": "log10"}, {"measurement": "log10 difference in the concentrations of Cs-derivatives and unmodified Cs required to achieve 50% inhibition in ELISA, McAb H6 1.5", "setting": "H6 1.5", "value": 2.7, "unit": "log10"}]}
{"smiles": "CC[C@@H]1NC(=O)[C@H]([C@H](O)[C@H](C)C/C=C/CO)N(C)C(=O)[C@H](C(C)C)N(C)C(=O)[C@H](CC(C)C)N(C)C(=O)[C@H](CC(C)C)N(C)C(=O)[C@@H](C)NC(=O)[C@H](C)NC(=O)[C@H](CC(C)C)N(C)C(=O)[C@H](C(C)C)NC(=O)[C@H](CC(C)C)N(C)C(=O)CN(C)C1=O", "note": "[MeBint^1 8'-hydroxy]", "values": [{"measurement": "log10 difference in the concentrations of Cs-derivatives and unmodified Cs required to achieve 50% inhibition in ELISA, McAb C4 2.2", "setting": "C4 2.2", "value": 0.0, "unit": "log10"}, {"measurement": "log10 difference in the concentrations of Cs-derivatives and unmodified Cs required to achieve 50% inhibition in ELISA, McAb B11 1.4", "setting": "B11 1.4", "value": "< 0.0", "unit": "log10"}, {"measurement": "log10 difference in the concentrations of Cs-derivatives and unmodified Cs required to achieve 50% inhibition in ELISA, McAb G7 1.1", "setting": "G7 1.1", "value": 0.0, "unit": "log10"}, {"measurement": "log10 difference in the concentrations of Cs-derivatives and unmodified Cs required to achieve 50% inhibition in ELISA, McAb H4 1.3", "setting": "H4 1.3", "value": "< 0.0", "unit": "log10"}, {"measurement": "log10 difference in the concentrations of Cs-derivatives and unmodified Cs required to achieve 50% inhibition in ELISA, McAb H6 1.5", "setting": "H6 1.5", "value": "< 0.0", "unit": "log10"}]}
{"smiles": "C/C=C/C[C@@H](C)[C@@H](O)[C@H]1C(=O)N[C@@H](CC)C(=O)N(C)CC(=O)N(C)[C@@H](CC(C)C)C(=O)N[C@@H](C(C)C)C(=O)N(C)[C@@H](CC(C)C)C(=O)N[C@@H](C)C(=O)N[C@H](CCCCNC(=O)OC(C)(C)C)C(=O)N(C)[C@@H](CC(C)C)C(=O)N(C)[C@@H](CC(C)C)C(=O)N(C)[C@@H](C(C)C)C(=O)N1C", "note": "[D-Ala^8 Boc-D-Lys]", "values": [{"measurement": "log10 difference in the concentrations of Cs-derivatives and unmodified Cs required to achieve 50% inhibition in ELISA, McAb C4 2.2", "setting": "C4 2.2", "value": 1.2, "unit": "log10"}, {"measurement": "log10 difference in the concentrations of Cs-derivatives and unmodified Cs required to achieve 50% inhibition in ELISA, McAb B11 1.4", "setting": "B11 1.4", "value": 0.3, "unit": "log10"}, {"measurement": "log10 difference in the concentrations of Cs-derivatives and unmodified Cs required to achieve 50% inhibition in ELISA, McAb G7 1.1", "setting": "G7 1.1", "value": 2.0, "unit": "log10"}, {"measurement": "log10 difference in the concentrations of Cs-derivatives and unmodified Cs required to achieve 50% inhibition in ELISA, McAb H4 1.3", "setting": "H4 1.3", "value": 0.6, "unit": "log10"}, {"measurement": "log10 difference in the concentrations of Cs-derivatives and unmodified Cs required to achieve 50% inhibition in ELISA, McAb H6 1.5", "setting": "H6 1.5", "value": 0.0, "unit": "log10"}]}
